Experimental data from patent publication US12605350B2, “Composition for preventing, ameliorating, or treating disease caused by nitration of tyrosine in proteins comprising tyrosine as effective component” (INDUSTRY-ACADEMIC COOPERATION FOUNDATION GYEONGSANG …, priority 2020, dated 2026).
“Also recorded” adds a separate entry of the source.

How the values were obtained:
[1] = tested on: glutamine synthetase (GS); assay: activity of glutamine synthetase (GS) in hippocampus lysate after kainic acid; type: in vivo; conditions: mouse survived after kainic acid, tyrosine diet vs ND/control
Method: To a 96-well plate, 2 μl of hippocampus lysate were added, and then adjusted to 50 μl by additionally adding 50 mM imidazole-HCl buffer solution (pH 6.8). After adding 50 μl of GS activity assay buffer solution (50 mM imidazole-HCl, pH 6.8, 25 mM L-glutamine, 12.5 mM hydroxylamine, 12.5 mM sodium arsenate, 1 mM MnCl2 and 0.08 mM ADP), the reaction was allowed to occur at 37° C. for 30 to 60 minutes.
Upon the completion of the reaction, γ-glutamylhydroxamate as a reference material was added to an empty well such that it is present at a concentration of between 0.391 and 25.0 mM. To the sample and reference material, 100 μl of reaction termination solution (90 mM FeCl3, 1.8 N HCl and 1.45% (w/v) trichloroacetic acid) were added and absorbance at a wavelength of 560 nm was measured.
Based on comparison with standard curve, GS activity was obtained for each sample. GS activity was expressed in terms of the production amount of γ-glutamylhydroxamate as a final product with unit of μM/min/μg of protein.

[2] = tested on: mouse model of epileptic seizure which has been induced to have seizure by kainic acid; assay: immunohistochemistry of hippocampal area (CA1, CA3): neurons (NeuN) and microglia (Iba1) after kainic acid; type: in vivo; conditions: tyrosine diet
Method: Blood perfusion with PBS and PFA was carried out through animal heart, and the brain was removed and post-fixed in PFA for 15 hours or longer. After washing 3 times for 10 minutes with PBS, brain tissue specimen with thickness of 40 μm was obtained using a vibratome.
In IHC buffer solution (PBS containing 0.3% Triton X-100) in which 3% bovine serum albumin is dissolved, the above-obtained brain specimen was blocked for 1 hour at room temperature and then reacted at 4° C. for 15 hours or longer with a primary antibody (anti-NeuN (Millipore, MAB377, 1:500), anti-Ibal (Wako, 019-19741, 1:200)) (IHC buffer solution containing 3% BSA). After washing 3 times, each for 10 minutes, with the IHC buffer solution, it was reacted with a flurolabeled secondary antibody (anti-Mouse IgG Alexa Fluor 488 (Invitrogen, 1:1000), anti-Rabbit IgG AlexaFluor594 (Invitrogen, […])) for 2 hours at room temperature (IHC buffer solution containing 3% BSA). After washing 3 times, each for 10 minutes, with the IHC buffer solution, the specimen was fixed on a silane-coated glass slide. An anti-fade solution containing DAPI was added onto the specimen and then dried after covering with a cover glass. Signal density of an image photographed with a fluorescent microscope was analyzed by using Image J analysis program.

[3] = tested on: glutamine synthetase (GS); assay: GS activity, GS expression and Tyr-nitrated GS in PFC of chronic immobilization stress mice; type: in vivo, mouse
Method: Each of the blood and PFC sample was obtained from a mouse anesthetized with CO2 gas. Specifically, mouse blood was collected between 9 AM and 11 AM and stored in a K3EDTA-coated vacuum container. Plasma was obtained by centrifuge for 10 minutes at 4° C., 500×g. PFC sample was weighed first, and, after lysis of the tissues by using Bullet homogenizer, subjected to centrifuge for 20 minutes at 4° C., 12,000 rpm. Thus-obtained plasma and tissue lysate were kept at −80° C. until use.
10 μg of the lysate were admixed with […] of GS assay buffer solution (50 mM imidazole-HCl, pH 6.8, 50 mM L-glutamine, 25 mM hydroxylamine, 25 mM sodium arsenate, 2 mM MnCl2 and 0.16 mM ADP), followed by incubation for 1 hour at 37° C.
After the mixing, the reaction was terminated by adding 50 μl of stop buffer solution (90 mM FeCl3, 1.8 N HCl and 1.45% trichloroacetic acid), and then γ-glutamylhydroxamate synthesized from a reaction between glutamine and hydroxylamine as catalyzed by GS was measured at 560 nm using a microplate reader.
By using Western blot (WB) and immunoprecipitation (IP)-WB, level of GS and level of Tyr-nitrated GS were measured, respectively. […]
The animal models were divided into two groups (i.e., normal group and stress group). […] Change in bodyweight and food intake amount were measured every other day. […]

[4] = tested on: glutamine synthetase (GS); assay: activity of glutamine synthetase (GS) in lysate of cerebral motor cortex, endothelin-1 stroke model; type: in vivo, mouse; conditions: Tyr diet (905 mg/kg L-Tyr)
Method: The mouse was anesthetized by intraperitoneal injection of avertin as an anesthetic (0.5 ml/25 g of mouse bodyweight). Thereafter, endothelin-1 was injected (2 μg) to the cerebral motor cortex area (with bregma at the center, AP 1.5 mm, ML-1.5 mm, and DV 1.8 mm) by stereotaxic surgery. The injection was made at speed of 0.3 μl per minute. The needle was left for about 5 minutes after completing the injection so that endothelin-1 can be fully absorbed in animal tissues. After suturing the skin, the animal was allowed to recover in the original cage.
To a 96-well plate, 2 μl of lysate of cerebral motor cortex were added, and then adjusted to 50 μl by additionally adding 50 mM imidazole-HCl buffer solution (pH 6.8). After adding 50 μl of GS activity assay buffer solution (50 mM imidazole-HCl, pH 6.8, 25 mM L-glutamine, 12.5 mM hydroxylamine, 12.5 mM sodium arsenate, 1 mM MnCl2 and 0.08 mM ADP), the reaction was allowed to occur at 37° C. for 30 to 60 minutes.
Upon the completion of the reaction, γ-glutamylhydroxamate as a reference material was added to an empty well (0.391 to 25.0 mM). To the sample and reference material, 100 μl of reaction termination solution (90 mM FeCl3, 1.8 N HCl and 1.45% trichloroacetic acid) were added and absorbance at a wavelength of 560 nm was measured. Based on comparison with standard curve, GS activity was obtained for each sample. […]

[5] = tested on: high-fat diet mouse model of type 2 diabetes; assay: fat accumulation in tissues, high-fat diet model; type: in vivo
Method: Twenty-seven C57BL/6 male mice (3-week old) were acclimated to the breeding condition for 1 week. […] Blood glucose was measured every week.
Mouse was anesthetized with avertin, and blood was collected from a heart. After the reaction with EDTA in a vacucontainer, the blood was centrifuged for 15 minutes at 1,500×g, 4° C. to separate plasma. According to heart perfusion with PBS and 4% paraformaldehyde (PFA), tissue fixation was carried out. Then, each tissue was harvested and stored in PFA.

[6] = HFD animal model, L-tyrosine diet (181 mg/kg)

With `N[C@@H](Cc1ccc(O)cc1)C(=O)O` [tyrosine] the “GS activity in hippocampal tissues” value [1] was “the same or higher than the control group; also recorded: statistically significant increase in GS activity”, the “activity of microglia in hippocampal area (CA1, CA3)” value [2] was “reduced; also recorded: significant decrease in the activity of microglia” and the “number of the neuronal cells in hippocampal area (CA1, CA3)” value [2] was “maintained without a loss”. For the same molecule, the “GS activity in PFC” value ([3]; stress group, tyrosine diet (181.2 mg/kg) compared to normal diet) was “statistically significant increase in the GS activity”, the “amount of N-Tyr (nitrated tyrosine) in GS” value ([3]; tyrosine-diet group compared to stress group with normal diet, PFC) was “statistically significant decrease in the amount of N-Tyr” and the “GS activity of the tissues (cerebral motor cortex)” value [4] was “the activity can be maintained”. For the same molecule, the “amount of fat tissues around kidney” value [5, 6] was “reduced to a statistically different level”, the “fat accumulation in liver” value [5, 6] was “fat accumulation is reduced all over the liver” and the “tissue weight (fat accumulation in tissues)” value ([5]; HFD+Tyr compared to HFD) was “statistically significant decrease in tissue weight”.
